Assay results published in patent US20240269305A1, “STING AGONIST SUITABLE AS PAYLOAD OF ANTIBODY DRUG CONJUGATE” (HITGEN INC., priority 2021, published 2024).

Tests used:
STING signaling pathway [1] = assay: IFN-β production in THP1 cells (ELISA); type: cell-based; settings: Homo sapiens, read-out: IFN-β EC50
Protocol: In this experiment, the function of sting agonists was evaluated by detecting the changes of IFN-β and CXCL10 (IP10) cytokines which were produced by the stimulation of the compounds to human peripheral blood mononuclear cell line THP1 cell (Shanghai Cell Bank). On the first day of the experiment, ELISA plates were coated according to the instructions of IFN-β (R&D, #DY814-05) and IP10 (BD, #550926) ELISA detection kits. The compound was dissolved in DMSO as a stock solution, which was diluted with culture medium to a 2× working concentration, and then added to a 96-well plate at 100 μL per well; THP1 cells in the logarithmic growth phase were counted and diluted to a concentration of 2*10^6/mL, which was then added at 100 μL per well to the aforementioned 96-well plate containing the compounds. After mixed, the above cells in the 96-well plate were incubated at 37° C. and 5% CO2 for 18 h. On the second day, the above cell culture supernatant was aspirated at 100 μL per well, and then their OD450 values were determined using the IFN-β and IP10 ELISA detection kits respectively. The obtained data was converted to the concentration of IFN-β and IP10 according to the standard curve, and the EC50 values were calculated using GraphPad 5.0 to fit the dose-effect curve.

STING signaling pathway [2] = assay: THP1-Blue ISG reporter assay (QUANTI-Blue); type: cell-based, human
Protocol: (§1) In this experiment, THP1-Blue™ ISG (interferon-stimulated genes) cell line (InvivoGen, catalog number: thp-isg) was used to evaluate the activating of interferon signaling pathway after the treatment by the compounds. THP1-Blue™ ISG cells were cultured using RPMI1640 medium (containing 10% heat-inactivated fetal bovine serum, 100 μg/ml Zeocin™, InvivoGen, catalog number: ant-zn-1). On the first day of the experiment, the compound was dissolved in DMSO as a stock solution, which was then diluted with culture medium to 2× working concentration and then 100 μL per well of the above dilution was added to a 96-well plate; THP1 cells in the logarithmic growth phase were counted and diluted to a concentration of 1*10^6 cells/mL, which was then added at 100 μL per well (1*10^5 cells/well) to the aforementioned 96-well plate containing the compounds. After mixed, the above cells in the 96-well plate were incubated at 37° C. with 5% CO2 for 18 h. On the second day, the above cell culture supernatant was aspirated at 20 μL per well, which was added to a new 96-well plate. And then 180 μL per well of QUANTI-Blue™ solution (InvivoGen, catalog number: rep-qbs1) was added. The above cells in the 96-well plate were incubated at 37° C. for 1 h. OD (620-655 nm) value was read on a Microplate Reader, and the EC50 value was calculated by using GraphPad to fit the dose-effect curve. 50 μL of Celltiter Glo solution (Promega, Cat. No. G756B) was added to the remaining cell culture plates.

[3] = Cytotoxicity in THP1-Blue ISG cells (Celltiter Glo); type: cell-based, human; settings: Celltiter Glo luminescence; for CC50 at 18 h: human
Protocol: as §1

STING signaling pathway [4] = assay: Cytokine secretion in PBMC (ELISA); type: cell-based; settings: 6 h
Protocol: (§2) The following experiments were performed to determine the activation effect of the compound on the STING signaling pathway in PBMC cells, which mainly using ELISA to detect the secretion of IL-6, TNF-, IFN-, and IFN- in the cell culture supernatant. At the same time, CTG (CellTiter-Glo) was used to detect the survival rate of the cells, and to calculate the half cytotoxic dose of cells CC50.
(§3) The frozen PBMC cells were placed in a 37° C. water bath. After the ice was completely melted, the cells were transferred to 3 ml of RPMI 1640 complete culture medium (containing 10% FBS), and then centrifuged at 1500 rpm for 3 minutes. After removing the supernatant, the cells were re-suspended for counting. 200 μL of 50,000 PBMC cells were added in a 96-well plate, and the compounds to be tested were diluted with different gradient concentrations. After 6 h, 150 μL of the cell supernatant was aspirated, and the concentrations of IL-6, TNF-, IFN-, and IFN- were measured using ELISA kits, and the curves of compound concentration and cytokine release were drawn to calculate the values of EC50. 50 μL of CTG solution was added to the remaining cell culture plate.

[5] = Cytotoxicity in PBMC (CellTiter-Glo); type: cell-based; settings: PBMC cells, CTG
Protocol: as §2, §3

[6] = THP-1, THP1 cells, 18 h incubation, ELISA of culture supernatant
[7] = Homo sapiens, THP1-Blue ISG cells, 18 h incubation, QUANTI-Blue OD 620-655 nm, read-out: EC50
[8] = ELISA of supernatant, read-out: IFN-β EC50
[9] = ELISA of supernatant, read-out: IL-6 EC50
[10] = ELISA of supernatant, read-out: TNF-α EC50
[11] = THP1-Blue ISG cells, 18 h incubation, QUANTI-Blue OD 620-655 nm, read-out: EC50

EC50 (STING signaling pathway [1]; [6]) | EC50 (STING signaling pathway [2]; [7]) | EC50 (STING signaling pathway [4]; [8]) | EC50 (STING signaling pathway [4]; [9]) | EC50 (STING signaling pathway [4]; [10]) | SMILES | CC50 at 18 h [3] | CC50 at 6 h [5] | further results
100 to 1000 nM | < 100 nM | 100 to 1000 nM | 100 to 1000 nM | 100 to 1000 nM | CCc1nc(C)sc1C(=O)Nc1nc2cc(C(N)=O)cc(OCCCN3CCN(C(=O)CCN)CC3)c2n1C/C=C/Cn1c(NC(=O)c2cc(C)nn2CC)nc2cc(C(N)=O)cc(SC)c21 [Example 1] | > 50000 nM | > 25000 nM | 
100 to 1000 nM | < 100 nM | 100 to 1000 nM | 100 to 1000 nM | 100 to 1000 nM | CCc1nc(C)sc1C(=O)Nc1nc2cc(C(N)=O)cc(OCCCN3CCN(C(=O)CCCNC)CC3)c2n1C/C=C/Cn1c(NC(=O)c2cc(C)nn2CC)nc2cc(C(N)=O)cc(SC)c21 [Example 2] | > 50000 nM | > 40000 nM | 
100 to 1000 nM | < 100 nM | 100 to 1000 nM | 100 to 1000 nM | 100 to 1000 nM | CCc1nc(C)sc1C(=O)Nc1nc2cc(C(N)=O)cc(OCCCN3CCN(C(=O)C(C)(C)CCN)CC3)c2n1C/C=C/Cn1c(NC(=O)c2cc(C)nn2CC)nc2cc(C(N)=O)cc(SC)c21 [Example 3] | > 50000 nM | > 40000 nM | 
100 to 1000 nM |  |  |  |  | CCc1nc(C)sc1C(=O)Nc1nc2cc(C(N)=O)cc(OCCCN3CCN(C(=O)OCCCN4CCNCC4)CC3)c2n1C/C=C/Cn1c(NC(=O)c2cc(C)nn2CC)nc2cc(C(N)=O)cc(SC)c21 [Example 6] |  |  | 
 |  |  |  |  | CCc1nc(C)sc1C(=O)Nc1nc2cc(C(N)=O)cc(OCCCN3CCN(C(=O)OCCCC4CCNCC4)CC3)c2n1C/C=C/Cn1c(NC(=O)c2cc(C)nn2CC)nc2cc(C(N)=O)cc(SC)c21 [Example 8] |  |  | EC50 (STING signaling pathway [1]; THP-1, 18 h): 100 to 1000 nM
 |  |  |  |  | CCc1nc(C)sc1C(=O)Nc1nc2cc(C(N)=O)cc(OCCCN3CCN(C(=O)OCCCN)CC3)c2n1C/C=C/Cn1c(NC(=O)c2cc(C)nn2CC)nc2cc(C(N)=O)cc(SC)c21 [Example 10] | > 50000 nM | > 40000 nM | EC50 (STING signaling pathway [1]; THP-1, 18 h): 100 to 1000 nM; EC50 (STING signaling pathway [2]; Homo sapiens, THP1-Blue ISG, 18 h): < 100 nM; EC50 (STING signaling pathway [4]; read-out: IFN-β EC50): 100 to 1000 nM; EC50 (STING signaling pathway [4]; read-out: IL-6 EC50): 100 to 1000 nM; EC50 (STING signaling pathway [4]; read-out: TNF-α EC50): 100 to 1000 nM
> 1000 nM |  |  |  |  | CCc1nc(C)sc1C(=O)Nc1nc2cc(C(N)=O)cc(OCCCN3CCN(CCNC)CC3)c2n1C/C=C/Cn1c(NC(=O)c2cc(C)nn2CC)nc2cc(C(N)=O)cc(SC)c21 [Example 11] |  |  | 
> 1000 nM |  |  |  |  | CCc1nc(C)sc1C(=O)Nc1nc2cc(C(N)=O)cc(OCCCN3CCN(CCN)CC3)c2n1C/C=C/Cn1c(NC(=O)c2cc(C)nn2CC)nc2cc(C(N)=O)cc(SC)c21 [Example 12] |  |  | 
100 to 1000 nM | < 100 nM | 100 to 1000 nM | < 100 nM | < 100 nM | CCc1nc(C)sc1C(=O)Nc1nc2cc(C(N)=O)cc(SC)c2n1C/C=C/Cn1c(NC(=O)c2cc(C)nn2CC)nc2cc(C(N)=O)cc(OCCCN3CCN(C(=O)OCCCC4CCNCC4)CC3)c21 [Example 13] | > 50000 nM | > 50000 nM | 
100 to 1000 nM | < 100 nM | 100 to 1000 nM | 100 to 1000 nM | < 100 nM | CCc1nc(C)sc1C(=O)Nc1nc2cc(C(N)=O)cc(SC)c2n1C/C=C/Cn1c(NC(=O)c2c(F)c(C)nn2CC)nc2cc(C(N)=O)cc(OCCCN3CCN(C(=O)OCCCC4CCNCC4)CC3)c21 [Example 14] | > 50000 nM | > 50000 nM | 
100 to 1000 nM |  |  |  |  | CCc1nc(C)sc1C(=O)Nc1nc2cc(C(N)=O)cc(OCCCN3CCN(C(=O)OCCCC4CCNCC4)CC3)c2n1C/C=C/Cn1c(NC(=O)c2c(F)c(C)nn2CC)nc2cc(C(N)=O)cc(SC)c21 [Example 15] |  |  | 
> 1000 nM |  |  |  |  | CCc1nc(C)sc1C(=O)Nc1nc2cc(C(N)=O)cc(OCCCN3CCOCC3)c2n1C/C=C/Cn1c(NC(=O)c2c(F)c(C)nn2CC)nc2cc(C(N)=O)cc(SCCCN)c21 [Example 17] |  |  | 
> 1000 nM |  |  |  |  | CCc1nc(C)sc1C(=O)Nc1nc2cc(C(N)=O)cc(OCCCN3CCOCC3)c2n1C/C=C/Cn1c(NC(=O)c2c(F)c(C)nn2CC)nc2cc(C(N)=O)cc(SCCCNC(=O)OCCCC3CCNCC3)c21 [Example 18] |  |  | 
> 1000 nM |  |  |  |  | CCc1nc(C)sc1C(=O)Nc1nc2cc(C(N)=O)cc(OCCCN3CCOCC3)c2n1C/C=C/Cn1c(NC(=O)c2c(F)c(C)nn2CC)nc2cc(C(N)=O)cc(OCCCN)c21 [Example 19] |  |  | 
 | 100 to 1000 nM | 100 to 1000 nM | 100 to 1000 nM | 100 to 1000 nM | CCc1nc(C)sc1C(=O)Nc1nc2cc(C(N)=O)cc(OC)c2n1C/C=C/Cn1c(NC(=O)c2cc(C)nn2CC)nc2cc(C(N)=O)cc(OCCCN3CCNCC3)c21 [Example 20] | > 50000 nM | > 50000 nM | 
 | < 100 nM | 100 to 1000 nM | 100 to 1000 nM | < 100 nM | CCc1nc(C)sc1C(=O)Nc1nc2cc(C(N)=O)cc(OCCCN3CCNCC3)c2n1C/C=C/Cn1c(NC(=O)c2cc(C)nn2CC)nc2cc(C(N)=O)cc(OC)c21 [Example 21] |  |  | 

SMILES | EC50 (STING signaling pathway [1]; [6]) | EC50 (STING signaling pathway [2]; [7]) | EC50 (STING signaling pathway [4]; [8]) | EC50 (STING signaling pathway [4]; [9]) | EC50 (STING signaling pathway [4]; [10]) | CC50 at 18 h [3] | CC50 at 6 h [5] | further results
CCc1nc(C)sc1C(=O)Nc1nc2cc(C(N)=O)cc(OCCCN3CCN(C(=O)OCCCNC(=O)OCc4ccc(NC(=O)[C@H](CCCNC(N)=O)NC(=O)[C@@H](NC(=O)CCCCCN5C(=O)C=CC5=O)C(C)C)cc4)CC3)c2n1C/C=C/Cn1c(NC(=O)c2cc(C)nn2CC)nc2cc(C(N)=O)cc(SC)c21 [Example 40] |  |  |  | < 100 nM | < 100 nM |  |  | EC50 (STING signaling pathway [2]; [11]): < 100 nM; CC50 ([3]; 18 h): > 50000 nM
CCc1nc(C)sc1C(=O)Nc1nc2cc(C(N)=O)cc(OCCCN3CCN(C(=O)C(C)(C)CCNC(=O)OCCCNC(=O)OCc4ccc(NC(=O)[C@H](CCCNC(N)=O)NC(=O)[C@@H](NC(=O)CCCCCN5C(=O)C=CC5=O)C(C)C)cc4)CC3)c2n1C/C=C/Cn1c(NC(=O)c2cc(C)nn2CC)nc2cc(C(N)=O)cc(SC)c21 [Example 41] |  |  |  | 100 to 1000 nM | 100 to 1000 nM | > 50000 nM |  | EC50 (STING signaling pathway [2]; [11]): < 100 nM
